# Test results: publication PMC6540747 (The AAPS journal, 2017)
# Legend:
# [1] = tested on: gut MPS and liver MPS on-platform; assay: Drug and metabolite concentration-time profiles on the multi-MPS platform; type: in vitro ADME, human; settings: Gut only arm
# liver MPS cells = assay: Liver MPS intracellular accumulation; type: in vitro ADME, human; settings: 72h after dosing; Gut / Liver and Liver only arms
# [2] = Intrinsic metabolic clearance of the liver MPS on the multi-MPS platform; type: in vitro ADME, human; settings: human
# [3] = tested on: liver MPS (human primary cryopreserved hepatocytes and Kupffer cells); assay: as above; type: in vitro ADME; settings: posterior mean (SD)
# [4] = fixed model parameter, same value in all arms; cited from earlier work
# human hepacyte cultures = settings: human hepatocyte cultures; cited from earlier work
# [5] = LiverChip technology; cited from earlier work
4-OH-DCF levels (mixing chamber concentration) ([1]; after 40 μM DCF dose) [µM],"intracellular accumulation in liver MPS (Kp, cells vs liver compartment medium) (liver MPS cells)",hepatocyte CLint at 40 μM [2] [µL/min/1e6 cells],"CLintl (intrinsic metabolic DCF clearance of the liver MPS) ([3]; Gut / Liver arm, 40 μM DCF to gut apical side)","CLintl (intrinsic metabolic DCF clearance of the liver MPS) ([3]; Liver only arm, 40 μM DCF to mixing chamber)",time at which concentration-time profiles reach a plateau ([1]; after the dose),SMILES,fum (DCF fraction unbound in circulating common medium) [4],Clintl (human hepacyte cultures) [μL/min/10^6 cells],non-specific binding to PSF [5]
< 0.05,substantial,–,–,–,–,"O=C(O)Cc1ccccc1Nc1c(Cl)cc(O)cc1Cl [4-OH-DCF, 4-hydroxy-diclofenac]",–,–,–
–,substantial,17,10.18 (0.46) μL/min,8.99 (0.20) μL/min,approximately 24 hours,"O=C(O)Cc1ccccc1Nc1c(Cl)cccc1Cl [DCF, diclofenac]",0.13,17.8,absence of non-specific binding
